From patent US4276297A, “Pyridylaminotriazole therapeutic agents” (Pfizer Inc., priority 1979, dated 1981)

Tests used:
gastric acid secretion = test: Inhibition of pentagastrin-induced gastric acid secretion in fasted Heidenhain pouch dogs; type: in vivo; settings: intravenous; for inhibition in vivo at 1 mg/kg / inhibition in vivo at 5 mg/kg / inhibition in vivo at 10 mg/kg: Canis lupus familiaris, 1.5 h, 90 minutes after start of pentagastrin infusion, lowest acid output after drug vs mean acid output immediately prior, read-out: Acid Antisecretory Activity (% Inhibition)
Protocol: The activity of the compounds of the present invention, as anti-ulcer agents, is determined by their ability to pass at least one of the following two standard biological and/or pharmacological tests, viz., (1) measuring their ability to antagonise those particular actions of histamine which are not blocked by an antihistamine such as mepyramine, i.e., a measure of their ability to block certain histamine H2 -receptor sites; and (2) measuring their ability to inhibit gastric acid secretion in the stomachs of Heidenhain pouch dogs that had previously been treated with pentagastrin in order to stimulate the secretion of said acid (in their stomachs) for these particular purposes.
The following 3-amino-5-(4-pyridyl)-1,2,4-triazole final products of Examples I-V, VII-XII, XIV-XVI, XVIII-XX, XXII-XXIII, XXV-XXVI, XXVIII and XXXII, respectively, were tested for antiulcer activity in terms of their ability to inhibit gastric acid secretion in groups of fasted Heidenhain pouch dogs. No anesthetic was used in this study. The animals were first administered pentagastrin in order to stimulate acid output in their stomachs by the continuous infusion of said drug into a superified leg vein at doses earlier determined to stimulate near maximal acid output from the gastric pouch. Gastric juice was then collected at 30-minute intervals following the start of a pentagastrin infusion amd measured to the nearest one-tenth of a […] (0.1 ml.). Ten collections were taken for each dog during an experiment. Acid concentration was then determined by titrating 1.0 ml. of gastric juice to a pH value of pH 7.4 with 0.1 N aqueous sodium hydroxide, using an Autoburette and a glass electrode pH meter (Radiometer) for these purposes. The animals were then administered the test compounds at 10, 5.0 and 1.0 mg./kg., respectively, or the control vehicle alone, via the intravenous route of administration,at 90 minutes following the start of the pentagastrin infusion. Gastric antisecretory effects were thereafter calculated by comparing the lowest acid output after drug administration with the mean acid output immediately prior to same and the results obtained in this manner are reported in the following table, where the entries given for each individual compound are expressed in terms of percent inhibition (%) at the dose level indicated: […]

[1] = Signs of toxic side effects in Heidenhain pouch dogs after intravenous dosing; type: in vivo; settings: 1.0 mg./kg. to 10 mg./kg.
Description: As previously indicated, the 3-amino-5-(4-pyridyl)-1,2,4-triazole compounds of this invention are all readily adapted to therapeutic use as histamine H2 -receptor inhibitors for the control of peptic ulcers, especially in view of their ability to inhibit the secretion of gastric acid in the body to a statistically significant degree. […] The other compounds of this invention also cause similar results. Furthermore, all the herein described compounds of this invention can be administered orally, for the present purposes at hand, without causing any significant untoward pharmacological side reactions to occur in the subject to whom they are so administered. In general, these compounds are ordinarily administered at dosage levels ranging from about 0.5 mg. to about 50 mg. per kg. of body weight per day, although variations will necessarily occur depending upon the condition and individual response of the subject being treated and the particular type of pharmaceutical formulation chosen.

SMILES	inhibition in vivo at 1 mg/kg (gastric acid secretion) [%]	inhibition in vivo at 5 mg/kg (gastric acid secretion) [%]	inhibition in vivo at 10 mg/kg (gastric acid secretion) [%]	further results
COCCNc1cc(-c2nc(N)n[nH]2)ccn1 [Example VII, 3-amino-5-{2-[N-mono(β-methoxyethyl)amino]-4-pyridyl}-1,2,4-triazole]	11			
CC(C)Nc1cc(-c2nc(N)n[nH]2)ccn1 [Example XXIII, 3-amino-5-[2-(N-monoisopropylamino)-4-pyridyl]-1,2,4-triazole]	35	52		
CCN(C)c1cc(-c2nc(N)n[nH]2)ccn1 [Example IX, 3-amino-5-[2-(N-methyl-N-ethylamino)-4-pyridyl]-1,2,4-triazole]	53			
CN(Cc1ccccc1)c1cc(-c2nc(N)n[nH]2)ccn1 [Example XXXII, 3-amino-5-[2-(N-methyl-N-benzylamino)-4-pyridyl]-1,2,4-triazole]			25	
CCNc1cc(-c2nc(NCC)n[nH]2)ccn1 [Example XI, 3-(monoethylamino)-5-[2-(N-monoethylamino)-4-pyridyl]-1,2,4-triazole]	38			
CCNc1cc(-c2nc(N)n[nH]2)ccn1 [Example XX, 3-amino-5-[2-(N-monoethylamino)-4-pyridyl]-1,2,4-triazole]	51	89	93	inhibit the pentagastrin-induced secretion of gastric acid (in words) (gastric acid secretion; 1.0 mg./kg. to 10 mg./kg., Heidenhain pouch dogs): consistently inhibit the pentagastrin-induced secretion of gastric acid from stomachs of Heidenhain pouch dogs to a significantly high degree; signs of toxic side effects [1]: without showing any substantial signs of toxic side effects
Nc1n[nH]c(-c2ccnc(NCc3ccccc3)c2)n1 [Example XIV, 3-amino-5-[2-(N-monobenzylamino)-4-pyridyl]-1,2,4-triazole]	21		72	
Nc1cc(-c2nc(N)n[nH]2)ccn1 [Example XVIII, 3-amino-5-(2-aminopyridyl)-1,2,4-triazole monohydrate]	30	86	94	
C=CCNc1cc(-c2nc(N)n[nH]2)ccn1 [Example IV]	31			
CNc1cc(-c2nc(N)n[nH]2)ccn1 [Example XIX, 3-amino-5-[2-(N-monomethylamino)-4-pyridyl]-1,2,4-triazole]	50			
Cc1ccc(CNc2cc(-c3nc(N)n[nH]3)ccn2)cc1 [Example XVI]		33		
Nc1n[nH]c(-c2ccnc(NCCO)c2)n1 [Example V, 3-amino-5-{2-[N-mono(β-hydroxyethyl)amino]-4-pyridyl}-1,a,4-triazole]	23		34	
Nc1n[nH]c(-c2ccnc(NCc3ccc(Cl)cc3)c2)n1 [Example XV, 3-amino-5-{2-[N-mono(p-chlorobenzyl)amino]-4-pyridyl}-1,2,4-triazole]	21		62	
CCCCCCCCCCNc1cc(-c2nc(N)n[nH]2)ccn1 [Example III, 3-amino-5-{2-[N-mono(n-decyl)amino]-4-pyridyl}-1,2,4-triazole]			14	
Cc1ccc(CNc2cc(-c3nc(N)n[nH]3)ccn2)cc1C [Example XXVIII, 3-amino-5-{2-[N-mono(3',4'-dimethylbenzyl)amino]-4-pyridyl}-1,2,4-triazole]		49		
CN(C)c1cc(-c2nc(N)n[nH]2)ccn1 [Example VIII, 3-amino-5-[2-(N,N-dimethylamino)-4-pyridyl]-1,2,4-triazole]	48	80	96	
CCCCNc1cc(-c2nc(N)n[nH]2)ccn1 [Example XXII, 3-amino-5-{2-[N-mono(n-butyl)amino]-4-pyridyl}-1,2,4-triazole]	29			
Nc1n[nH]c(-c2ccnc(NCC(F)(F)F)c2)n1 [Example XXV, 3-amino-5-{2-[N-mono(2,2,2-trifluoroethyl)amino]-4-pyridyl}-1,2,4-triazole]	10			
CCCNc1cc(-c2nc(N)n[nH]2)ccn1 [Example I, 3-amino-5-{2-[N-mono(n-propyl)amino]-4-pyridyl}-1,2,4-triazole]	33	64		
Nc1n[nH]c(-c2ccnc(NCCc3ccccc3)c2)n1 [Example XII, 3-amino-5-{2-[N-mono(β-phenylethyl)amino]-4-pyridyl}-1,2,4-triazole]	18		50	
CCN(CC)c1cc(-c2nc(N)n[nH]2)ccn1 [Example X, 3-amino-5-[2-(N,N-diethylamino)-4-pyridyl]-1,2,4-triazole]		68		
CCCCCCNc1cc(-c2nc(N)n[nH]2)ccn1 [Example II, 3-amino-5-{2-[N-mono(n-hexyl)amino]-4-pyridyl}-1,2,4-triazole]	0		40	
CCNc1cc(-c2nc(NC)n[nH]2)ccn1 [Example XXVI, 3-(N-monomethylamino)-5-[2-(N-monoethylamino)-4-pyridyl]-1,2,4-triazole]	32	64		
